Data published in patent publication US6462184B2, “Compounds, processes and intermediates for synthesis of mixed backbone oligomeric compounds” (ISIS Pharmaceuticals, Inc., priority 1999, dated 2002).
[PN] = dimethylaminoethyl (DMAE) phosphoramidate internucleoside linkage; e = 2'-O-(2-methoxyethyl) (MOE); d = 2'-deoxy (DNA)

Experiments:
c-raf mRNA = c-raf mRNA expression in A549 cells; type: cell-based, human; conditions: between 50-400 nM range
Protocol: Gapmers designed in this study are based on the parent sequence of ATGCATTCTGCCCCCAAGGA (SEQ ID No:9) which is a uniform deoxy phosphorothioate. This sequence is an antisense oligomeric compound targeted to mouse c-raf. c-raf m-RNA expression assay was carried out according to a reported procedure (Monia et al., Nature Medicinek, 1996, 2, 668). Human A549 lung carcinoma cells were obtained from the American Type Tissue Collection. These were grown in Dulbecco's modified Eagle's medium containing 1 g of glucose/liter (DMEM) and FCS (10%) and routinely passaged when 90-95% confluent.
Assay for Oligonucleoside Inhibition of c-raf Protein Synthesis: A549 cells were plated in 6-well plates (Falcon Labware, Lincoln Park, N.J.) and 24-48 hours later (when 80-90% confluent) treated with 1 μM phorbol 12,13-dibutyrate (PDBu) for 18 hours. This procedure removes greater than 75% of immunoreactive c-rafprotein from the cells. Cells were then washed three times with DMEM (3 mL) (to remove PDBu), and DMEM (1 mL) containing DOTMA/DOPE solution (20 μg/mL, LipofectinR, Bethesda Research Laboratories) was added. Oligonucleoside gapmers were then added to the required concentration (for our initial screen, 1 μM) from a 10 μM stock solution, and the two solutions were mixed by swirling of the dish. The cells were incubated at 37° C. for 4 hours, washed once with DMEM+FCS (10%) to remove the DOTMA/DOPE solution, and then additional DMEM (3 mL)+10% FCS was added and the cells were allowed to recover for another 10 hours. Total RNA is prepared 24 hours after the experiment and analyzed for c-raf and G3PDH mRNA levels after normalization to G3PDH mRNA.

ICAM-1 = ICAM-1 expression in HUVEC cells (flow cytometry); type: cell-based, human
Protocol: Targeted oligomeric compounds were prepared and assayed using HUVEC cells to determine their ability to inhibit the expression of ICAM-1. HUVEC cells were washed three times with Opti-MEM (Life Technologies, Inc.) that was prewarmed to 37° C. Oligomeric compounds were premixed with Lipofectin (10 μg/mL, Life Technologies, Inc.) in Opti-MEM, serially diluted to the desired concentrations, and applied to washed cells. Basal and untreated (no oligomeric compounds added) control cells were also treated with Lipofectin. Cells were incubated for 4 hours at 37° C., at which time the medium was removed and replaced with standard growth medium with or without TNF-a ([…], R&D Systems). Incubation at 37° C. was continued for different times as indicated below.
A fluorescence-activated cell sorter was used to quantitate ICAM-1 protein expression. The cells were removed from the plate surface by brief trypsinization with trypsin (0.25%) in PBS. Trypsin activity was quenched with a solution of bovine serum albumin (2%) and sodium azide (0.2%) in PBS (+Mg/Ca). […]
Expression of cell surface ICAM-1 was determined by flow cytometry using a Becton Dickinson FACScan. The percentage of ICAM-1 expression in the control was calculated as follows: [(oligomeric compound-treated ICAM-1 value)−(basal ICAM-1 value)/(non-treated ICAM-1 value)−(basal ICAM-1 value))].

“A*NT*NG* C*A*T*S TSCSTS GSCSCS CSCSC* A*A*G* G*A* (antisense ATGCATTCTGCCCCCAAGGA; sugars from the 5' end e6 d8 e6, linkages [PN]2 o3 s9 o5 (s phosphorothioate, o phosphodiester), methylation of C not given here) [SEQ ID No 10, 2'-MOE gapmer with PN-PO-PS-PO mixed backbone, 20-mer]” was tested, and the “c-raf mRNA expression inhibition” value (c-raf mRNA) was “dose dependent manner”.
With “A*NT*NG* C*A*T*S TSCSTS GSCSCS CSCSC* A*A*G*N G*NA* (antisense ATGCATTCTGCCCCCAAGGA; 2'-MOE gapmer, mixed PN/PO/PS backbone, chemistry not fully specified) [SEQ ID No 11, 2'-MOE gapmer with PN-PO-PS-PO-PN mixed backbone, 20-mer]” the “controlling ICAM-1 expression” value (ICAM-1; HUVEC cells (printed HWEC), compound synthesized by amidite chemistry and same compound by H-phosphonate chemistry) was “efficacious” and the “inhibiting ICAM-1 expression” value (ICAM-1; between 3 and 100 nM range, both compounds synthesized from different chemistries) was “display dose response”.
With “A*T*G* C*A*T*S TSCSTS GSCSCS CSCSC* A*A*G* G*A* (antisense ATGCATTCTGCCCCCAAGGA; 2'-MOE gapmer with mixed PO/PS backbone, marks not given here, further chemistry not given here) [SEQ ID No 9, 2'-MOE gapmer with PO-PS-PO mixed backbone, 20-mer, antisense to c-raf]” the “c-raf mRNA expression inhibition” value (c-raf mRNA) was “dose dependent manner”.
With “T*NT*NT*S GSASCS ASCSGS GSCSAS CSCSAS T*ST*NT*N T* (antisense TTTGACACGGCACCATTTT; sugars from the 5' end e3 d12 e4, linkages [PN]2 s14 [PN]2 (s phosphorothioate, o phosphodiester), methylation of C not given here) [SEQ ID No 4, 2'-MOE gapmer with PN-PS-PN mixed backbone, 19-mer]” the “c-raf mRNA expression inhibition” value (c-raf mRNA) was “dose dependent manner”.
